Key:
[1] = system: aorta of HHcy and HHcy/HG Cbs−/+ mice; experiment: Endothelium-dependent vascular relaxation to ACh in thoracic aorta after in vivo calpain inhibitor administration; parameters: species or system mouse; details: 2 mg/kg BW i.p. daily for 2 weeks, p<0.05
Experimental: Images (Left Panel) and quantification (Right Panel) showing HHcy and HG activates calpain in mouse aortic endothelial cells (MAECs, P0) isolated from CBS^−/+ mice (FIG. 3A). Calpain activity was measured in intact MAECs by the fluorescent substrate t-BOC-Leu-Met-CMAC (T-BOC, 10 μmol/L, 30 min). In FIG. 3B, calpain inhibitors rescued endothelium-dependent vascular relaxation to ACh in the aorta of HHcy CBS^−/+ and HHcy/HG CBS^−/+ mice in the presence of calpain inhibitors in vivo (Left Panel) and ex vivo (Right Panel). Left Panel: Calpain inhibitor MDL28170 (MDL, Sigma #M6690) was administrated in vivo by i.p. injection (2 mg/kg/day, 2 weeks). Right Panel: The arterial rings were incubated with calpain inhibitors: MDL, calpeptin and N-Acetyl-Leu-Leu-Met-CHO (ALLM, 20 μmol/L for all, Enzo life Sciences, PI-100-0005) for 1 hr. […]
Endothelial function was assessed in the mouse thoracic aorta using a multiple-wire myograph (DMT 610) (Cheng et al., 2011, Blood 118:1998-2006; Cheng et al., 2007, Can J Physiol Pharmacol 85:404-412; Cheng et al., 2001, Hypertension 37:433-439). […]

mouse thoracic aorta = experiment: Endothelium-dependent vascular relaxation to ACh in aortic rings treated ex vivo (multiple-wire myograph); details: aortic rings of HHcy/HG-Cbs−/+ mice preincubated with calpain inhibitor 20 μmol/L for 1 hour; p<0.05

MDL28170
endothelial function (endothelium-dependent vascular relaxation to ACh) [1]: largely improved | aortic endothelium-dependent vascular relaxation to ACh (mouse thoracic aorta): markedly improved

— US20160089391A1, “Molecular Targets for Cardiovascular Disease” (Temple University-of the Commonwealth System of Higher …, priority 2014, published 2016)
